Earlier results in patent publication US9808468B2, “Formulation of meloxicam” (ICEUTICA PTY LTD., priority 2014, dated 2017).

solubility in water: practically insoluble
SMILES: Cc1cnc(NC(=O)C2=C(O)c3ccccc3S(=O)(=O)N2C)s1 [Meloxicam, 4-hydroxy-2-methyl-N-(5-methyl-2-thiazolyl)-2H-1,2-benzothiazine-3-carboxamide-1,1-dioxide]
